# Source: ChEMBL document CHEMBL1141740, “Studies on the Synthesis of Elegan-Type Linear Diterpenes: The Efficient Total Syntheses of Eleganolone, Eleganolone Acetate, Elegandiol, Eleganonal, and Epoxyeleganolone” (J Nat Prod, 1998)
# Experiments:
# Format in all cases: functional, tissue-based
# Conditions in all cases: Cavia porcellus
# [1] = test system: Ileum; experiment: Relaxation activity in guinea pig ileum assessed as inhibition of histamine-induced muscle contractions
# [2] = test system: Ileum; experiment: Relaxation activity in guinea pig ileum assessed as relaxation of BaCl2-induced muscle contractions
# [3] = test system: Ileum; experiment: Relaxation activity in guinea pig ileum assessed as inhibition of acetylcholine-induced muscle contractions
# [4] = test system: Ileum; experiment: Relaxation activity in guinea pig ileum assessed as relaxation of KCl-induced muscle contractions
SMILES,IC50 [1],Activity [2],IC50 [2],IC50 [3],Activity [4],IC50 [4]
CC(=O)OC/C=C(\C)CC/C=C(\C)CC/C=C(\C)CC(=O)C=C(C)C [ELEGANOLONE ACETATE],6.61 µM,Dose-dependent effect,45.7 µM,19.5 µM,Dose-dependent effect,33.9 µM
CC(C)=CC(=O)C/C(C)=C/CC/C(C)=C/CC/C(C)=C/CO [ELEGANOLONE],14.5 µM,Dose-dependent effect,45.7 µM,25.1 µM,Dose-dependent effect,18.6 µM
